Test results: patent publication US10975384B2, “PYL9 and uses thereof” (PURDUE RESEARCH FOUNDATION, priority 2015, dated 2021)

Legend:
Arabidopsis plants = experiment: Osmotic potential measurements after ABA spray; format: in vivo; conditions: developing bud tissue, 20 μM ABA spray, 2 d
Description: Plant samples were collected in a plastic centrifuge tube filter (without membrane; Corning Costar Spin-X) and then, quick-frozen in liquid nitrogen. After thawing, the sap was collected by centrifuging at 16,000×g for 4 min to remove insoluble material. A 10-μL volume of cell sap was measured using a vapor pressure osmometer (Model 5200; Wescor). Solute concentration was converted to osmotic potential (Ψπ) using the van't Hoff law: Ψπ=−RTc, where c is the molar solute concentration (osmolality; moles kilogram-1), R is the gas constant (0.08314 L Bar mol−1 K−1), and T is the temperature in Kelvin.

[1] = system: pRD29A::PYL9 transgenic plants; experiment: Drought resistance of pRD29A::PYL9 transgenic Arabidopsis with ABA treatment; format: in vivo; conditions: 10 μM ABA applied once after water withheld for 12 d, plants after flowering
Description: Soil water content percentage during drought treatment in Arabidopsis was measured as described (27). We used 591-mL pots (48-7214; 04.00 SQ TL TW; Myers Industries) with 130 g (˜62 g oven dry weight) Fafard Super-Fine Germinating Mix Soil (Sungro Horticultures) per pot. After being saturated with water, the total weight of the wet soil was ˜440 g per pot. Pots were covered with plastic film to reduce water loss from soil surface. Three-week-old plants (four plants per pot) were subjected to drought stress by withholding water. Plants were sprayed with 2 mL 10 μM ABA plus 0.2% Tween-20 per pot after water was withheld for 12 d. Soil water content percentage was computed as total weight minus dry soil weight divided by water weight before drought according to the work (27). For drought treatment on rice, we measured the relative water content using the Soil Temperature/Moisture Meter L99-TWS-1 (Shanghai Fotel Precise Instrument Co., Ltd) following the work (40). Before drought treatment, the mixed vermiculite and sandy soil (Zhongfang Horticulture Co.) for rice was saturated with water, and the relative soil water content before drought was set as 100%. Rice plants at the four-leaf stage were subjected to drought by withholding water for 14 d, and the relative soil water content after the drought treatment was ˜20%.

SAG12-LUC expression = experiment: SAG12-LUC transient expression assay in Arabidopsis protoplasts; format: cell-based; conditions: snrk2.2/3/6 triple-mutant protoplasts, ABA treatment
Description: Assays for transient expression in protoplasts were performed as described (18). All steps were performed at room temperature. SAG12-LUC and ORE1L-LUC were used as the senescence-responsive reporters, and ZmUBQ-GUS was used as the internal control. After transfection, protoplasts were incubated in washing and incubation solution without ABA or with 5 μM ABA under light for 16 h.

[2] = system: ORE1 and AtNAP expression; experiment: Quantitative RT-PCR of ORE1 and AtNAP in mature leaves after ABA; format: in vivo, Arabidopsis; conditions: 20 μM ABA spray
Description: Northern blot and real-time PCR were performed as reported (18). For Northern blot analysis, the probe was labeled with the PCR-DIG Probe Synthesis Kit (Roche). RD29A-F (SEQ ID NO. 83) and PYL9-R (SEQ ID NO. 84) were used for the PCR. For real-time PCR, reactions were performed with iQ SYBR Green Supermix (BioRad). The primers used include SEQ ID NOs. 71 to 80. Quantitative RT-PCR was conducted on mature leaves of 4-wk-old Arabidopsis plants that were growing in soil and sprayed with 20 μM ABA.

Q: Which osmotic potential (Arabidopsis plants) does the source give for `CC1=CC(=O)CC(C)(C)[C@@]1(O)/C=C/C(C)=C\C(=O)O` [ABA, abscisic acid] here?
A: reduced

Q: What about the drought resistance [1] of the same compound?
A: significantly increased

Q: What about the SAG12-LUC expression (SAG12-LUC expression) of the same compound?
A: not enhanced

Q: What about the “expression of ORE1 and AtNAP” value [2] of the same compound?
A: induced
